Marks after values point to notes of the source that are not given here.
Tested on: acetic acid-induced colitis in male Wistar rats
Assay: Acetic acid-induced ulcerative colitis
Type: in vivo
Experimental: Male Wistar rats were divided into 9 experimental groups, each of 6 animals. Rats of groups 1 and 2 received the vehicle (5 mL/kg) and served as normal control and control colitis groups, and Group 3 was administered dexamethasone (0.1 mg/kg) and served as Reference Drug group. […] All medications were administered orally, once daily for 5 consecutive days after colitis induction. The first doses were administrated in all groups one hour after colitis induction. The colonic lesions were assessed by weighing the colon specimens and the wet weight/length ratio was calculated for all the rats. The specimens were examined under a dissecting microscope and the lesion scores were quantified by scoring system (0-5). Ulcer area was measured using a plane glass square. Each cell on the glass square was 1 mm^2 in area, and the number of cells was counted and the ulcer area was determined for each colon.
The Ulcer index (UI) was measured by summing the lesion score and the ulcer area for each colon specimen. The curative ratio was determined according to formula (1) below: […]
The inflammatory changes of the intestinal tract were associated with a significant increase of wet weight/length of the colon specimens as an indicator of inflammation. […] The colitis was induced by slowly infusion of 2 mL (4%, v/v) acetic acid in saline into the colon through the catheter.

[1] = 50 mg/kg orally once daily for 5 days after colitis induction, n=6

With `C[C@]12C=CC(=O)C=C1CC[C@@H]1[C@@H]2[C@@H](O)C[C@@]2(C)[C@H]1CC[C@]2(O)C(=O)CO` [Prednisolone] the “percent protection of control colitis” value (50 mg/kg orally for 5 days) was 54.9%, the “Lesion score (0-5)” value [1] was 2.22 ± 0.12 and the Ulcer area [1] was 2.53 ± 0.15* cm^2. For the same compound, the Ulcer index [1] was 4.65 ± 0.27 and the “Wet W/L” value (colon wet weight/length, 50 mg/kg orally once daily for 5 days after colitis induction, n=6) was 0.46 ± 0.02 g/cm.

Reference: US9533019B1, “Calotropis procera extracts as anti-ulcerative colitis agents” (KING SAUD UNIVERSITY, priority 2016, dated 2017)
